Read-outs that look alike come from different tables or passages of the source.
Tested on: ATCC strain 43300 Staphylococcus aureus
Conditions: for recovery after enrichment in Mueller-Hinton broth: 1 cfu detection limit
Method: Additional antibiotic was added every 24 hours. The growth periods tested were 24 (see FIG. 4), 48, 72, 96 and 120 hours.
USP<51> Antimicrobial Effectiveness protocol was used as the template experimental paradigm. […] All concentrations were plated out to the 10^−7 dilutions to ascertain cfu/ml. […] Additional antibiotic was added at the initial concentration every 24 hours.
ATCC strain 43300 Staphylococcus aureus was streaked out for isolations. An isolated colony was chosen, streaked again and incubated. Isolate was chosen and then diluted to a McFarland standard of one. The estimated value was then taken to inoculate tubes containing growth media and 12, 30 or 60 μg/ml oxacillin with approximately 10^5 cfu/ml. These tubes were incubated and plated for counting cfu. A clone having no observed log reduction in cfu was selected for the rest of the experiment.
Material was calculated on a 10 ml volume. Sterile oxacillin was added to each experimental condition to a final concentration of 12, 30 or 60 μg/ml antibiotic.
All tubes were then inoculated with a dilution of the selected ATCC strain 43300 Staphylococcus aureus clone giving a final level of colony forming units of 3.3×10^5/ml (log=5.52). The tubes were incubated at 25° C. and mixed periodically. Antibiotic was re-inoculated every 24 hours at the initial concentration to maintain pressure on the organism. Plating was done at 24, 48, 72, and 120 hours. Each condition was plated by diluting 1 ml of growth material into 9 ml of MLB diluent broth. […] This mixture was serial diluted down to 10^−7 with 1 ml placed in triplicate in a sterile petri dish at each dilution point. 20 mls of TSA was added to each dilution, swirled and allowed to solidify. All dilutions were placed in a 35° C. incubator for 24 to 72 hours. Bacterial colonies on each plate were counted and the average taken then changed into log format. Any cfu/ml observed greater than 3.3×10^5 (log=5.5) were recorded as >3.3×10^5.
The tube was then taken out of the experiment and tested for ATCC strain 43300 Staphylococcus growth. The tube was spun down at 5000 rpm for 10 minutes. The supernatant was then decanted into 90 mls of Mueller-Hinton broth with 6 μg/ml oxacillin. This is for enrichment and the recovery of any MRSA cells that may be present whether healthy or stressed. The pellet had 10 mls Mueller-Hinton broth with 6 μg/ml oxacillin added to it to recover any cells that may be present. Both vessels were incubated at 35° C. for 48 hours followed by plating every 24 hours. Each vessel was plated at 10 dilutions to obtain a 1 cfu detection limit.

CS(C)(=O)=O [MSM, Methylsulfonylmethane] was tested, and the “survival, Average Log” value (12 μg/ml oxacillin + MSM (% in label), 72 hours, listed as 10% MSM) was 4.0 Log, the “survival, Average Log” value (12 μg/ml oxacillin + MSM (% in label), 72 hours, listed as 11% MSM) was 3.6 Log and the “survival, Average Log” value (12 μg/ml oxacillin + MSM (% in label), 72 hours, listed as 12% MSM) was 3.1 Log. The “survival, Average Log” value (12 μg/ml oxacillin + MSM (% in label), 72 hours, listed as 13% MSM) was 2.7 Log, the “survival, Average Log” value (12 μg/ml oxacillin + MSM (% in label), 72 hours, listed as 14% MSM) was 2.0 Log and the “survival, Average Log” value (12 μg/ml oxacillin + MSM (% in label), 72 hours, listed as 15% MSM) was 2.3 Log. The “log reduction in the number of cfu/ml” value (12 μg/ml oxacillin, 48 hours) was 4.5 log, the “log reduction in the number of cfu/ml” value (12 μg/ml oxacillin, 72 hours) was 4.5 log and the “log reduction in the number of cfu/ml” value (12 μg/ml oxacillin, MSM concentrations of 12%-16%, 72 hours) was 1 log. For the same molecule, the “average log reduction in the number of cfu/ml” value (12 μg/ml oxacillin, all MSM concentrations, 24 hours) was 1.5 logs, the “average Log reduction in the number of cfu/ml” value (30 μg/ml and 60 μg/ml oxacillin, lower end of MSM concentrations, 24 hours) was 3 log and the “survival, Average Log” value (30 μg/ml oxacillin + MSM (% in label), 24 hours, listed as 5% MSM) was 2.51 Log. The “survival, Average Log” value (30 μg/ml oxacillin + MSM (% in label), 24 hours, listed as 6% MSM) was 2.46 Log, the “survival, Average Log” value (30 μg/ml oxacillin + MSM (% in label), 24 hours, listed as 7% MSM) was 2.98 Log and the “survival, Average Log” value (30 μg/ml oxacillin + MSM (% in label), 24 hours, listed as 8% MSM) was 3.07 Log. For the same molecule, the “survival, Average Log” value (30 μg/ml oxacillin + MSM (% in label), 24 hours, listed as 9% MSM) was 3.01 Log, the “survival, Average Log” value (30 μg/ml oxacillin + MSM (% in label), 24 hours, listed as 10% MSM) was 3.32 Log and the “survival, Average Log” value (30 μg/ml oxacillin + MSM (% in label), 24 hours, listed as 11% MSM) was 3.57 Log. For the same molecule, the “survival, Average Log” value (30 μg/ml oxacillin + MSM (% in label), 24 hours, listed as 12% MSM) was 3.59 Log, the “survival, Average Log” value (30 μg/ml oxacillin + MSM (% in label), 24 hours, listed as 13% MSM) was 3.62 Log and the “survival, Average Log” value (30 μg/ml oxacillin + MSM (% in label), 24 hours, listed as 14% MSM) was 3.78 Log. The “survival, Average Log” value (30 μg/ml oxacillin + MSM (% in label), 24 hours, listed as 15% MSM) was 3.94 Log, the “survival, Average Log” value (30 μg/ml oxacillin + MSM (% in label), 24 hours, listed as 16% MSM) was 3.91 Log and the “survival, Average Log” value (30 μg/ml oxacillin + MSM (% in label), 48 hours, listed as 5% MSM) was 3.8 Log. For the same molecule, the “survival, Average Log” value (30 μg/ml oxacillin + MSM (% in label), 48 hours, listed as 6% MSM) was 3.7 Log, the “survival, Average Log” value (30 μg/ml oxacillin + MSM (% in label), 48 hours, listed as 7% MSM) was 2.3 Log and the “survival, Average Log” value (30 μg/ml oxacillin + MSM (% in label), 48 hours, listed as 8% MSM) was 3.1 Log. The “survival, Average Log” value (30 μg/ml oxacillin + MSM (% in label), 48 hours, listed as 9% MSM) was 2.4 Log, the “survival, Average Log” value (30 μg/ml oxacillin + MSM (% in label), 48 hours, listed as 10% MSM) was 2.6 Log and the “survival, Average Log” value (30 μg/ml oxacillin + MSM (% in label), 48 hours, listed as 11% MSM) was 2.4 Log. For the same molecule, the “survival, Average Log” value (30 μg/ml oxacillin + MSM (% in label), 48 hours, listed as 12% MSM) was 2.6 Log, the “survival, Average Log” value (30 μg/ml oxacillin + MSM (% in label), 48 hours, listed as 13% MSM) was 2.5 Log and the “survival, Average Log” value (30 μg/ml oxacillin + MSM (% in label), 48 hours, listed as 14% MSM) was 2.5 Log. For the same molecule, the “survival, Average Log” value (30 μg/ml oxacillin + MSM (% in label), 48 hours, listed as 15% MSM) was 2.8 Log, the “survival, Average Log” value (30 μg/ml oxacillin + MSM (% in label), 48 hours, listed as 16% MSM) was 2.6 Log and the “survival, Average Log” value (30 μg/ml oxacillin + MSM (% in label), 72 hours, listed as 5% MSM) was 5.5 Log. The “survival, Average Log” value (30 μg/ml oxacillin + MSM (% in label), 72 hours, listed as 6% MSM) was 5.5 Log, the “survival, Average Log” value (30 μg/ml oxacillin + MSM (% in label), 72 hours, listed as 7% MSM) was 4.5 Log and the “survival, Average Log” value (30 μg/ml oxacillin + MSM (% in label), 72 hours, listed as 8% MSM) was 5.5 Log. The “survival, Average Log” value (30 μg/ml oxacillin + MSM (% in label), 72 hours, listed as 9% MSM) was 2.9 Log, the “survival, Average Log” value (30 μg/ml oxacillin + MSM (% in label), 72 hours, listed as 10% MSM) was 3.9 Log and the “survival, Average Log” value (30 μg/ml oxacillin + MSM (% in label), 72 hours, listed as 11% MSM) was 3.2 Log. For the same molecule, the “survival, Average Log” value (30 μg/ml oxacillin + MSM (% in label), 72 hours, listed as 12% MSM) was 2.6 Log, the “survival, Average Log” value (30 μg/ml oxacillin + MSM (% in label), 72 hours, listed as 13% MSM) was 1.8 Log and the “survival, Average Log” value (30 μg/ml oxacillin + MSM (% in label), 72 hours, listed as 14% MSM) was 2.2 Log. The “survival, Average Log” value (30 μg/ml oxacillin + MSM (% in label), 72 hours, listed as 15% MSM) was 2.4 Log, the “survival, Average Log” value (30 μg/ml oxacillin + MSM (% in label), 72 hours, listed as 16% MSM) was 1.9 Log and the “recovery after enrichment in Mueller-Hinton broth” value (“recovery after enrichment” for short) (30 μg/ml oxacillin, 120 hours) was “total kill”. The “survival, Average Log” value (60 μg/ml oxacillin + MSM (% in label), 24 hours, listed as 5% MSM) was 2.54 Log, the “survival, Average Log” value (60 μg/ml oxacillin + MSM (% in label), 24 hours, listed as 6% MSM) was 2.38 Log and the “survival, Average Log” value (60 μg/ml oxacillin + MSM (% in label), 24 hours, listed as 7% MSM) was 2.34 Log. For the same molecule, the “survival, Average Log” value (60 μg/ml oxacillin + MSM (% in label), 24 hours, listed as 8% MSM) was 2.67 Log, the “survival, Average Log” value (60 μg/ml oxacillin + MSM (% in label), 24 hours, listed as 9% MSM) was 2.50 Log and the “survival, Average Log” value (60 μg/ml oxacillin + MSM (% in label), 24 hours, listed as 10% MSM) was 2.63 Log. For the same molecule, the “survival, Average Log” value (60 μg/ml oxacillin + MSM (% in label), 24 hours, listed as 11% MSM) was 2.83 Log, the “survival, Average Log” value (60 μg/ml oxacillin + MSM (% in label), 24 hours, listed as 12% MSM) was 2.86 Log and the “survival, Average Log” value (60 μg/ml oxacillin + MSM (% in label), 24 hours, listed as 13% MSM) was 2.80 Log. The “survival, Average Log” value (60 μg/ml oxacillin + MSM (% in label), 24 hours, listed as 14% MSM) was 2.03 Log, the “survival, Average Log” value (60 μg/ml oxacillin + MSM (% in label), 24 hours, listed as 15% MSM) was 3.81 Log and the “survival, Average Log” value (60 μg/ml oxacillin + MSM (% in label), 24 hours, listed as 16% MSM) was 3.83 Log. The “survival, Average Log” value (60 μg/ml oxacillin + MSM (% in label), 48 hours, listed as 5% MSM) was 3.5 Log, the “survival, Average Log” value (60 μg/ml oxacillin + MSM (% in label), 48 hours, listed as 6% MSM) was 1.8 Log and the “survival, Average Log” value (60 μg/ml oxacillin + MSM (% in label), 48 hours, listed as 7% MSM) was 4.0 Log. The “survival, Average Log” value (60 μg/ml oxacillin + MSM (% in label), 48 hours, listed as 8% MSM) was 2.8 Log, the “survival, Average Log” value (60 μg/ml oxacillin + MSM (% in label), 48 hours, listed as 9% MSM) was 2.2 Log and the “survival, Average Log” value (60 μg/ml oxacillin + MSM (% in label), 48 hours, listed as 10% MSM) was 2.2 Log. For the same molecule, the “survival, Average Log” value (60 μg/ml oxacillin + MSM (% in label), 48 hours, listed as 11% MSM) was 2.1 Log, the “survival, Average Log” value (60 μg/ml oxacillin + MSM (% in label), 48 hours, listed as 12% MSM) was 2.0 Log and the “survival, Average Log” value (60 μg/ml oxacillin + MSM (% in label), 48 hours, listed as 13% MSM) was 1.7 Log. For the same molecule, the “survival, Average Log” value (60 μg/ml oxacillin + MSM (% in label), 48 hours, listed as 14% MSM) was 2.2 Log, the “survival, Average Log” value (60 μg/ml oxacillin + MSM (% in label), 48 hours, listed as 15% MSM) was 2.1 Log and the “survival, Average Log” value (60 μg/ml oxacillin + MSM (% in label), 48 hours, listed as 16% MSM) was 1.9 Log. For the same molecule, the “survival, Average Log” value (60 μg/ml oxacillin + MSM (% in label), 72 hours, listed as 11% MSM) was 1 Log, the “survival, Average Log” value (60 μg/ml oxacillin + MSM (% in label), 72 hours, listed as 12% MSM) was 2.4 Log and the “survival, Average Log” value (60 μg/ml oxacillin + MSM (% in label), 72 hours, listed as 13% MSM) was 1 Log. For the same molecule, the “survival, Average Log” value (60 μg/ml oxacillin + MSM (% in label), 72 hours, listed as 14% MSM) was 1.5 Log, the “survival, Average Log” value (60 μg/ml oxacillin + MSM (% in label), 72 hours, listed as 16% MSM) was 1.8 Log and the “log reduction in the number of cfu/ml” value (60 μg/ml oxacillin, 24 hours) was 3.5 log. The “recovery after enrichment” value (60 μg/ml oxacillin, 72 hours) was “total kill”, the “recovery after enrichment” value (60 μg/ml oxacillin, 96 hours) was “total kill” and the “recovery after enrichment” value (60 μg/ml oxacillin, 120 hours) was “total kill”. For the same molecule, the growth (positive 5%, 10%, and 16% MSM controls, no antibiotic, 24 hours) was “signs of turbid growth”.
